Test [1] concerns the target T1, KMT9 (Homo sapiens, UniProt Q9Y5N5).
T1 sequence (Q9Y5N5 1-214): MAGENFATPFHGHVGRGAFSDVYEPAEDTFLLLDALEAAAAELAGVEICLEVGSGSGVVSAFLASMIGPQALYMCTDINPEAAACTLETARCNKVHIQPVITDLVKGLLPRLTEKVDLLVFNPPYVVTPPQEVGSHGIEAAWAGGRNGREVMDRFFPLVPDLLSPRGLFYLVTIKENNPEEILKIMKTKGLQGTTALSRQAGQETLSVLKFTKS
T1 sequence (Q9UI30 1-120 isoform Q9UI30-2 partner): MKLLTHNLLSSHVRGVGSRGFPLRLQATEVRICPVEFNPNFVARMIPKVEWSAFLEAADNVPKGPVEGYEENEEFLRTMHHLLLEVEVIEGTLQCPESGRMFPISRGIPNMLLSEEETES
Put plainly: Microscale thermophoresis (MST) KMT9 binding. Particulars: His-tag labelled KMT9 20 nM. The method, boiled down: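 Kd from microscale thermophoresis: compound series against 20 nM His-KMT9 labelled via RED-Tris-NTA, buffer 25 mM HEPES (pH 7.5)/100 mM NaCl/1 mM DTT/0.05% Tween, 40% MST power, 100% LED. Reported as classes: A ≤10 nM, B >10–100 nM, C >100–1000 nM, D >1000 nM.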

In test [2] the target is T1, KMT9. The test can be described thus: KMT9 thermal shift assay (SyproOrange). Type of test: binding. The note with it: 2 μM KMT9. In outline: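 ΔTm versus DMSO-only control is reported in bins (>20 K, 15–20 K, 10–15 K, ≤10 K), using Tm from Boltzmann sigmoidal fits of SyproOrange melt curves. KMT9 with compound in pH 8.5 BTP buffer containing MgCl2 and DTT was preincubated at 25° C, then ramped 1° C per 15 s up to 95° C.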

Test [3] concerns the target T1, KMT9. Put plainly: KMT9 methyltransferase inhibition assay, MTaseGlo luminescence (from entry 155). Type of test: biochemical. The note with it: 100 nM KMT9, 5 μM ETF1, 1 μM SAM. On the procedure: For the compounds from entry 155 on in Table 1, the following procedure was used to determine IC50 values: The assay was carried out in white, opaque 384-well OptiPlates (PerkinElmer). For IC50 determination, a 2.5x substrate mix (final assay concentrations: 5 μM ETF1, 1 μM SAM and 1x MTaseGlo Reagent), a 2.5x KMT9 solution (final assay concentration 100 nM) and a 5x inhibitor stock 1:1 dilution series (concentration according to the desired range; dilution series was prepared in assay buffer containing 10% DMSO to obtain a final DMSO concentration of 2% in the assay) were prepared. 2 μL of 5x inhibitor stock and 4 μL of 2.5x KMT9 were pipetted, the plate was spun down at 700 rpm for 1 min using a Hettich UNIVERSAL 320 centrifuge and incubated at room temperature (around 25° C.) for 15 min. The reaction was initiated by adding 4 μL of 2.5x substrate mix, the plate was spun down as described before and incubated at 30° C. for 2 h. Afterwards, 10 μL of 2× MTaseGlo Detection solution was added, the plate was centrifuged as described above and incubated for 60 min at room temperature. Luminescence was measured using a PerkinElmer EnVision 2102 Multilabel Reader. Calculation of inhibition and data fitting was carried out as for entries 1-154. described above.
For the results of the methyltransferase inhibition assay shown as “Inhibition” in Table 1, “I” represents an IC50 less than 0.1 μM, “II” represents an IC50 equal or higher than 0.1 μM and less than 1 μM, “III” represents an IC50 equal or higher than 1 µM and less than 10 µM and “IV” represents an IC50 equal or higher than 10 µM

The mark [4] stands for this setting: 500 µM compound, read-out: Thermal shift (ΔTm).
Setting [5] is: MTaseGlo procedure (entries from 155), read-out: Inhibition (IC50).
[6] abbreviates: ΔTm class, 500 uM compound, read-out: Thermal shift.
[7] abbreviates: IC50 class, MTaseGlo procedure (entries from 155 on), read-out: Inhibition.

The source of these data is patent US20250188110A1, “SPECIFIC SMALL MOLECULE INHIBITORS THAT BLOCK KMT9 METHYLTRANSFERASE ACTIVITY AND FUNCTION” (ALBERT-LUDWIGS-UNIVERSITÄT FREIBURG, priority 2021, published 2025).

Where two headings read alike, the source gives them in different places.

Regarding `Nc1ncnc2c1ccn2[C@@H]1C[C@H]([C@H]2CCCN2)[C@@H](O)[C@H]1O` [Compound 398, (1R,2S,3R,5R)-3-(4-amino-7H-pyrrolo[2,3-d]pyrimidin-7-yl)-5-((R)-pyrrolidin-2-yl) cyclopentane-1,2-diol], the Kd in test [1] (read-out: MST (Kd)) was greater than 1000 nM. For the same compound, the ΔTm at 500 µM in test [2] (setting [4]) was no more than 10 °C. Also, in test [3] (setting [5]), the IC50 was greater than 10000 nM.

With `Nc1ncnc2c1ccn2[C@@H]1C[C@H]([C@@H]2CCCN2)[C@@H](O)[C@H]1O` [Compound 399, (1R,2S,3R,5R)-3-(4-amino-7H-pyrrolo[2,3-a]pyrimidin-7-yl)-5-((S)-pyrrolidin-2-yl) cyclopentane-1,2-diol], in test [1] (read-out: MST (Kd)), the Kd was greater than 1000 nM. In addition, the ΔTm at 500 µM in test [2] (setting [4]) was no more than 10 °C. Further, in test [3] (setting [5]), the IC50 was greater than 10000 nM.

For the compound `Nc1ncnc2c1ccn2[C@@H]1C[C@H](c2cccc(O)c2)[C@@H](O)[C@H]1O` [Compound 404, (1R,2S,3R,5R)-3-(4-amino-7H-pyrrolo[2,3-d]pyrimidin-7-yl)-5-(3-hydroxyphenyl) cyclopentane-1,2-diol], the Kd in test [1] (Kd class, read-out: MST) was greater than 1000 nM. Moreover, in test [2] (setting [6]), the ΔTm at 500 µM is no more than 10 °C. Moreover, the IC50 in test [3] (setting [7]) was greater than 10000 nM.

For the compound `Nc1ncnc2c1ccn2[C@@H]1C[C@H](c2ccc(O)cc2)[C@@H](O)[C@H]1O` [Compound 405, (1R,2S,3R,5R)-3-(4-amino-7H-pyrrolo[2,3-d]pyrimidin-7-yl)-5-(4-hydroxyphenyl) cyclopentane-1,2-diol], in test [1] (Kd class, read-out: MST), the Kd is greater than 1000 nM. Further, the ΔTm at 500 µM in test [2] (setting [6]) lay in the range of 10 to 15 °C. In test [3] (setting [7]), the IC50 was greater than 10000 nM.

Regarding `CNc1ncnc2c1ccn2[C@@H]1C[C@H](c2ccc(O)cc2)[C@@H](O)[C@H]1O` [Compound 406, (1S,2R,3R,5R)-3-(4-hydroxyphenyl)-5-(4-(methylamino)-7H-pyrrolo[2,3-a]pyrimidin-7-yl) cyclopentane-1,2-diol], in test [1] (read-out: MST (Kd)), the Kd is greater than 1000 nM. In test [2] (setting [4]), the ΔTm at 500 µM was no more than 10 °C. The IC50 in test [3] (setting [5]) is greater than 10000 nM.

For `Nc1ncnc2c1ccn2[C@@H]1C[C@H](c2cccc(Cl)c2)[C@@H](O)[C@H]1O` [Compound 407, (1R,2S,3R,5R)-3-(4-amino-7H-pyrrolo[2,3-d]pyrimidin-7-yl)-5-(3-chlorophenyl) cyclopentane-1,2-diol], in test [1] (read-out: MST (Kd)), the Kd was greater than 1000 nM. In test [2] (setting [4]), the ΔTm at 500 µM is no more than 10 °C. The IC50 in test [3] (setting [5]) was greater than 10000 nM.

Take `CC(=O)c1cccc([C@H]2C[C@@H](n3ccc4c(N)ncnc43)[C@H](O)[C@@H]2O)c1` [Compound 408, 1-(3-((1R,2R,3S,4R)-4-(4-amino-7H-pyrrolo[2,3-d]pyrimidin-7-yl)-2,3-dihydroxycyclopentyl)phenyl)ethan-1-one]: the Kd in test [1] (read-out: MST (Kd)) is greater than 1000 nM. In test [2] (setting [4]), the ΔTm at 500 µM was no more than 10 °C. For the same compound, the IC50 in test [3] (setting [5]) was greater than 10000 nM.

On to `Nc1ccc([C@H]2C[C@@H](n3ccc4c(N)ncnc43)[C@H](O)[C@@H]2O)cc1` [Compound 409, (1r,2s,3r,5r)-3-(4-amino-7H-pyrrolo[2,3-d]pyrimidin-7-yl)-5-(4-aminophenyl) cyclopentane-1,2-diol], for which the Kd in test [1] (Kd class, read-out: MST) is greater than 1000 nM. The ΔTm at 500 µM in test [2] (setting [6]) is no more than 10 °C. Besides, the IC50 in test [3] (setting [7]) was greater than 10000 nM.

On to `Nc1cccc([C@H]2C[C@@H](n3ccc4c(N)ncnc43)[C@H](O)[C@@H]2O)c1` [Compound 410, (1R,2S,3R,5R)-3-(4-amino-7H-pyrrolo[2,3-d]pyrimidin-7-yl)-5-(3-aminophenyl) cyclopentane-1,2-diol], for which the Kd in test [1] (read-out: MST (Kd)) was greater than 1000 nM. Further, in test [2] (setting [4]), the ΔTm at 500 µM is no more than 10 °C. The IC50 in test [3] (setting [5]) is greater than 10000 nM.

Take `CN1CCC([C@H]2C[C@@H](n3cc(-c4ccn(Cc5ccccc5)n4)c4cnc(Cl)nc43)[C@H](O)[C@@H]2O)CC1` [Compound 491, (1R,2S,3R,5R)-3-(5-(1-benzyl-1H-pyrazol-3-yl)-2-chloro-7H-pyrrolo[2,3-d]pyrimidin-7-yl)-5-(1-methylpiperidin-4-yl)cyclopentane-1,2-diol]: the Kd in test [1] (Kd class, read-out: MST) is 100 to 1000 nM. Moreover, the ΔTm at 500 µM in test [2] (setting [6]) lay in the range of 15 to 20 °C. In addition, the IC50 in test [3] (setting [7]) is 100 to 1000 nM.

With `CN1CCC([C@H]2C[C@@H](n3cc(-c4ccn(S(=O)(=O)c5ccccc5)n4)c4c(N)nc(Cl)nc43)[C@H](O)[C@@H]2O)CC1` [Compound 492, (1R,2S,3R,5R)-3-(4-Amino-2-chloro-5-(1-(phenylsulfonyl)-1H-pyrazol-3-yl)-7H-pyrrolo[2,3-d]pyrimidin-7-yl)-5-(1-methylpiperidin-4-yl)cyclopentane-1,2-diol], in test [1] (Kd class, read-out: MST), the Kd was no more than 10 nM. For the same compound, the ΔTm at 500 µM in test [2] (setting [6]) was greater than 20 °C. For the same compound, the IC50 in test [3] (setting [7]) fell in the range of 100 to 1000 nM.

On to `CN1CC=C([C@H]2C[C@@H](n3cc(-c4nccs4)c4c(N)nc(Cl)nc43)[C@H](O)[C@@H]2O)CC1` [Compound 493, (1R,2S,3R,5R)-3-(4-Amino-2-chloro-5-(thiazol-2-yl)-7H-pyrrolo[2,3-d]pyrimidin-7-yl)-5-(1-methyl-1,2,3,6-tetrahydropyridin-4-yl)cyclopentane-1,2-diol], for which the Kd in test [1] (read-out: MST (Kd)) is no more than 10 nM. For the same compound, in test [2] (setting [4]), the ΔTm at 500 µM is 15 to 20 °C. Also, the IC50 in test [3] (setting [5]) was in the range of 100 to 1000 nM.

For the compound `CN1CCC([C@H]2C[C@@H](n3cc(-c4ccn(S(=O)(=O)c5ccccc5)n4)c4cnc(Cl)nc43)[C@H](O)[C@@H]2O)CC1` [Compound 495, (1R,2S,3R,5R)-3-(2-Chloro-5-(1-(phenylsulfonyl)-1H-pyrazol-3-yl)-7H-pyrrolo[2,3-d]pyrimidin-7-yl)-5-(1-methylpiperidin-4-yl)cyclopentane-1,2-diol], the Kd in test [1] (Kd class, read-out: MST) was 10 to 100 nM. In addition, the ΔTm at 500 µM in test [2] (setting [6]) was in the range of 15 to 20 °C. The IC50 in test [3] (setting [7]) lay in the range of 1000 to 10000 nM.

Turning to `CN1CCC([C@H]2C[C@@H](n3cc(-c4nc(Cc5ccccc5)cs4)c4cnc(Cl)nc43)[C@H](O)[C@@H]2O)CC1` [Compound 496, (1R,2S,3R,5R)-3-(5-(4-benzylthiazol-2-yl)-2-chloro-7H-pyrrolo[2,3-d]pyrimidin-7-yl)-5-(1-methylpiperidin-4-yl)cyclopentane-1,2-diol], in test [1] (Kd class, read-out: MST), the Kd was 10 to 100 nM. Moreover, the ΔTm at 500 µM in test [2] (setting [6]) was in the range of 15 to 20 °C. The IC50 in test [3] (setting [7]) was 1000 to 10000 nM.

`O[C@@H]1[C@H](O)[C@@H](C2CCN(CC3CC3)CC2)C[C@H]1n1cc(-c2nc(Cc3ccccc3)cs2)c2cnc(Cl)nc21` [Compound 497, (1R,2S,3R,5R)-3-(5-(4-Benzylthiazol-2-yl)-2-chloro-7H-pyrrolo[2,3-d]pyrimidin-7-yl)-5-(1-(cyclopropylmethyl)piperidin-4-yl)cyclopentane-1,2-diol]: in test [1] (Kd class, read-out: MST), the Kd was 10 to 100 nM. Also, the ΔTm at 500 µM in test [2] (setting [6]) was in the range of 10 to 15 °C. The IC50 in test [3] (setting [7]) was 1000 to 10000 nM.

Turning to `O[C@@H]1[C@H](O)[C@@H](C2CCN(CCc3ccccc3)CC2)C[C@H]1n1cc(-c2nc(Cc3ccccc3)cs2)c2cnc(Cl)nc21` [Compound 498, (1R,2S,3R,5R)-3-(5-(4-Benzylthiazol-2-yl)-2-chloro-7H-pyrrolo[2,3-d]pyrimidin-7-yl)-5-(1-phenethylpiperidin-4-yl)cyclopentane-1,2-diol], the Kd in test [1] (Kd class, read-out: MST) lay within 10 to 100 nM. Further, the ΔTm at 500 µM in test [2] (setting [6]) fell in the range of 10 to 15 °C. The IC50 in test [3] (setting [7]) lay within 1000 to 10000 nM.

Take `O[C@@H]1[C@H](O)[C@@H](C2CCN(CC(F)(F)F)CC2)C[C@H]1n1cc(-c2nc(Cc3ccccc3)cs2)c2cnc(Cl)nc21` [Compound 499, (1R,2S,3R,5R)-3-(5-(4-Benzylthiazol-2-yl)-2-chloro-7H-pyrrolo[2,3-d]pyrimidin-7-yl)-5-(1-(2,2,2-trifluoroethyl)piperidin-4-yl)cyclopentane-1,2-diol]: the Kd in test [1] (Kd class, read-out: MST) was greater than 1000 nM. Besides, the ΔTm at 500 µM in test [2] (setting [6]) is no more than 10 °C. Besides, the IC50 in test [3] (setting [7]) is greater than 10000 nM.
